Article PMC12482674 (Alzheimer's Research & Therapy, 2025)
pIC50: −log10 of the molar value. Structures can show the parent of a compound that is named as a salt.

What was measured:
[1] = patients receiving the drug; cited from earlier work
tau = tau (Homo sapiens, UniProt P10636, C639S); assay: Transmission electron microscopy of Tau-SAA end products; assay type: biochemical; conditions: SAA end products (total fraction) of 100 µM reactions
hyperphosphorylated tau = conditions: mouse, in vivo; cited from earlier work
2N4R = conditions: cited from earlier work
[2] = biological target: AD brain-derived tau seeds (Homo sapiens, UniProt P10636, C639S); assay: biochemical; assay type: biochemical; conditions: for inhibition at 100 µM: read-out: percent inhibition (vehicle AUC 100% minus percent AUC of compound); for percent inhibition (vehicle AUC 100% minus percent AUC of compound): 100 µM
tau peptides = conditions: cited from earlier work
tau oligomers = conditions: mouse models; cited from earlier work
[3] = Phase III; cited from earlier work

Chain of tau (P10636 1-352 isoform P10636-2 C233S): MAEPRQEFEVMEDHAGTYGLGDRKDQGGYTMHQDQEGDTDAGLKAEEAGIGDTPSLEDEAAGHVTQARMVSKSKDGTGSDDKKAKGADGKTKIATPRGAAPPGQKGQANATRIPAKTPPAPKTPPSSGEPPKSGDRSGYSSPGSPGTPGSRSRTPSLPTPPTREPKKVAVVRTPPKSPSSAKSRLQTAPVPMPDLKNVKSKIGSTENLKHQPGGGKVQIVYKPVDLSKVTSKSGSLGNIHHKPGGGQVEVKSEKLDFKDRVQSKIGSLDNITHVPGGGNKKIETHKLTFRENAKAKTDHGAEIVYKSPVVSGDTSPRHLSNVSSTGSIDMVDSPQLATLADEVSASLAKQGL
Chain of AD brain-derived tau seeds (P10636 1-352 isoform P10636-2 C233S): as above

For `COc1cc(/C=C/C(=O)CC(=O)/C=C/c2ccc(O)c(OC)c2)ccc1O` [curcumin], which cognitive outcome [1] is on record?
The cognitive outcome was “improvements in attention, long-term retrieval, and visual memory”.

What about the “tau and Aβ burden by PET ligand binding” value [1] of the same molecule?
The value was “decreased tau and Aβ burden”.

With `COc1ccc2c(c1)c(CC(=O)O)c(C)n2C(=O)c1ccc(Cl)cc1` [Indomethacin] as the molecule, how does the “aggregates seen by TEM” value (tau) read?
Its value is “widespread amyloid-like aggregates”.

Which “hyperphosphorylated tau burden and survival” value (hyperphosphorylated tau) does the source give for `Brc1cccc(-c2cc(-c3ccc4c(c3)OCO4)[nH]n2)c1` [anle138b] here?
The value was “reduces hyperphosphorylated tau burden and prolongs survival”.

And the “inhibition of spontaneous 2N4R aggregate formation” value (2N4R)?
Its value is “inhibits the in vitro formation of spontaneous 2N4R aggregates”.

What about the inhibition at 100 µM [2] of the same molecule?
Its inhibition at 100 µM is -25.9%.

With `O=c1cc(-c2ccccc2)oc2cc(O)c(O)c(O)c12` [baicalein] as the molecule, how does the inhibition at 100 µM [2] read?
Its inhibition at 100 µM is greater than 95%.

Which “percent inhibition (vehicle AUC 100% minus percent AUC of compound)” value [2] does the source give for `CNc1ccc2nc3ccc(=[N+](C)C)cc-3sc2c1.[Cl-]` [azure B] here?
Its value is greater than 95%.

With `CC[C@@]1(O)C(=O)OCc2c1cc1n(c2=O)Cc2cc3c(CN(C)C)c(O)ccc3nc2-1` [topotecan] as the molecule, how does the “inhibition of fibrillization of tau peptides” value (tau peptides) read?
Its value is “only mildly inhibited”.

What about the inhibition at 100 µM [2] of the same molecule?
Its inhibition at 100 µM is 92%.

With `CN(C)c1ccc2nc3ccc(N)cc3[s+]c2c1.[Cl-]` [Azure A, azure A] as the molecule, how does the “maximum thioflavin fluorescence (ThT Max)” value [2] read?
Its value is “approaching the baseline”.

And the “percent inhibition (vehicle AUC 100% minus percent AUC of compound)” value [2]?
The value was greater than 95%.

With `O=C(/C=C/c1ccc(O)c(O)c1)O[C@H](Cc1ccc(O)c(O)c1)C(=O)O` [rosmarinic acid] as the molecule, how does the inhibition at 100 µM [2] read?
Its inhibition at 100 µM is greater than 95%.

Which inhibition at 100 µM [2] does the source give for `CN(C)c1ccc2nc3ccc(=[N+](C)C)cc-3sc2c1` [Methylene Blue] here?
Its inhibition at 100 µM is greater than 99%.

With `O=S(=O)(O)c1cc(S(=O)(=O)O)c2c(/N=N/c3ccccc3)c(O)ccc2c1` [Orange-G] as the molecule, how does the inhibition at 100 µM [2] read?
Its inhibition at 100 µM is 39%.

What does the source list for `CO[C@H]1/C=C/O[C@@]2(C)Oc3c(C)c(O)c4c(O)c(c(/C=N/N5CCN(C)CC5)c(O)c4c3C2=O)NC(=O)/C(C)=C\C=C\[C@H](C)[C@H](O)[C@@H](C)[C@@H](O)[C@@H](C)[C@H](OC(C)=O)[C@@H]1C` [Rifampin]?
aggregates seen by TEM (tau): devoid of fibrillar amyloid structures; spread of tau oligomers and cognitive function (tau oligomers): limit the spread of tau oligomers and improve cognitive function

For `CCN(CC)CCCC(C)Nc1c2ccc(Cl)cc2nc2ccc(OC)cc12` (stereo not drawn) [quinacrine hydrochloride], which “maximum thioflavin fluorescence (ThT Max)” value [2] is on record?
Its value is “reduced ThT Max across all dilutions”.

What about the “time to threshold (TTT)” value [2] of the same molecule?
The value was “only delay TTT at higher dilutions”.

For `C=CCc1ccc(O)c(-c2ccc(O)c(CC=C)c2)c1` [honokiol], which inhibition at 100 µM [2] is on record?
The inhibition at 100 µM was 94%.

With `CN(C)c1ccc2c(c1)Sc1cc(N(C)C)ccc1N2.CS(=O)(=O)O.CS(=O)(=O)O` [LMTX] as the molecule, how does the primary efficacy outcomes [3] read?
Its primary efficacy outcomes is “did not reach primary efficacy outcomes”.

Which “percent inhibition (vehicle AUC 100% minus percent AUC of compound)” value [2] does the source give for `Oc1cc(O)c2c(c1)O[C@H](c1ccc(O)c(O)c1)[C@@H](O)C2` [(+)-catechin] here?
Its value is 89%.

With `O=C(c1cc(O)c(O)c(O)c1)c1ccc(O)c(O)c1O` [Exifone] as the molecule, how does the pIC50 [2] read?
The pIC50 was 4.95.

What about the inhibition at 100 µM [2] of the same molecule?
Its inhibition at 100 µM is greater than 95%.

Which results are given for `COc1cccc2c1C(=O)c1c(O)c3c(c(O)c1C2=O)C[C@@](O)(C(=O)CO)C[C@@H]3O[C@H]1C[C@H](N)[C@@H](O)[C@H](C)O1` [Epirubicin]?
pIC50 [2]: 5.18; inhibition at 100 µM [2]: > 99%

Which inhibition at 100 µM [2] does the source give for `CNc1ccc2nc3ccc(N)cc3[s+]c2c1` [azure C] here?
The inhibition at 100 µM was greater than 95%.

For `O=c1c(O)c(-c2cc(O)c(O)c(O)c2)oc2cc(O)cc(O)c12` [myricetin], which inhibition at 100 µM [2] is on record?
The inhibition at 100 µM was greater than 95%.

For `Cc1ccc(C(=O)c2cc(O)c(O)c([N+](=O)[O-])c2)cc1` [tolcapone], which inhibition at 100 µM [2] is on record?
The inhibition at 100 µM was 78%.

For `CCN(CC)CCNC(=O)c1c(C)[nH]c(/C=C2\C(=O)Nc3ccc(F)cc32)c1C` [Sunitinib], which “aggregates seen by TEM” value (tau) is on record?
The value was “widespread amyloid-like aggregates”.

And the inhibition at 100 µM [2]?
The inhibition at 100 µM was 98.6%.

With `Nc1ccc2nc3ccc(N)cc3[s+]c2c1` [Thionin, thionin] as the molecule, how does the “maximum thioflavin fluorescence (ThT Max)” value [2] read?
Its value is “approaching the baseline”.

And the “percent inhibition (vehicle AUC 100% minus percent AUC of compound)” value [2]?
Its value is “over 99%”.

Which inhibition at 100 µM [2] does the source give for `CC(=O)c1c(O)c(C)c(O)c2c1OC1=CC(=O)C(C(C)=O)C(=O)C12C` (stereo not drawn) [usnic acid] here?
The inhibition at 100 µM was 21.5%.

What does the source list for `Nc1c(/N=N/c2ccc(-c3ccc(/N=N/c4cc(S(=O)(=O)O)c5ccccc5c4N)cc3)cc2)cc(S(=O)(=O)O)c2ccccc12` [Congo Red, Congo red]?
maximum thioflavin fluorescence (ThT Max) [2]: approaching the baseline; inhibition at 100 µM [2]: > 95%
